Consider one compound from patent publication US20250120890A1, “Oral Care Compositions Comprising Hops Beta Acids And Tin” (The Procter & Gamble Company, priority 2023, published 2025).

The data set is described as follows: Headspace measurement of DMDS and MeSH from dentifrice samples by SPME GC-SCD. The class given is physicochemical. Particulars: 0.100 wt % in stannous dentifrice, each pair of samples with/without. The procedure:
The oral care compositions of TABLE 2 were prepared by combining one or more humectants, water, sweetener(s), and metal salts, buffers, dyes, and/or stabilizing agents to create a liquid mixture. The liquid mixture was homogenized at 25° C. until homogeneous and completely dissolved. Next, sodium hydroxide (50% solution) was added to the liquid mixture, and the liquid mixture was homogenized at 25° C. until homogeneous and completely dissolved. A separate powder mixture was prepared by combining the abrasive silica, thickening silica, and opacifier, with any thickening agents, such as xanthan gum, Gantrez, and/or sodium carboxymethylcellulose. The powder mixture was then combined with the liquid mixture and homogenized completely. Next, the surfactant, such as sodium lauryl sulfate, flavor, optional Michael acceptor (“MA”), and optional hops extract were added to the mixture. The contents were homogenized at 25° C. until homogeneous, and entrained air was removed by vacuum. […]
Each salt described in Table 3 was weighed with a Mettler Toledo XSE 205 DualRange balance (Mettler Toledo USA, Columbus, OH, USA) and quantitatively transferred to a 600-mL beaker. […]

In the case of `C/C=C/C(=O)C1C(C)C=CCC1(C)C` (stereo not shown) [delta-damascone], the “Effect on headspace levels of MeSH and DMDS” value is “reduced the headspace levels of MeSH and DMDS substantially”.
